# According to patent US20250339426A1, “GCN2 MODULATOR FOR TREATING CANCER” (HIBERCELL, INC., priority 2022, published 2025):
# Key:
# [1] = system: Kasumi-1 (human AML cancer cells); test: In vivo tumor growth inhibition, Kasumi-1 xenograft; design: species or system CB17 SCID mice
# Description: Kasumi-1 (human AML cancer cells): Female 6-8 weeks old CB17 SCID mice were inoculated subcutaneously on the right flank with […] tumor cells (1×10^7) in RPMI 1640 without serum for tumor development. The treatments were started when the mean tumor size reached approximately 151 mm^3 at Day 29 after cell inoculation and continued until end of study by twice daily oral gavage dosing of HC-7366 at listed doses (vehicle, 3 mg/kg HC-7366, or 30 mg/kg HC-7366, FIG. 18).
# [formula] • 2.2.2 Tumor Measurements: The measurement of tumor size was conducted three times weekly with a caliper and recorded. The tumor volume (mm^3) was estimated using the formula: TV=a×b^2/2, where “a” and “b” is long and short diameters of a tumor, respectively. Tumor volume was calculated using the formula [tumor volume (mm^3)=π/6×length×width^2).
# Regression was calculated using the formula=100×ΔT/T initial, if ΔT<0. Animals with 0 mm^3 tumor volume (no measurable tumor) for three consecutive measurements were considered as complete responders and animals with 50% tumor regressions were partial responders.
# CTG-2455 = test: Ex vivo AML PDX cell viability (Cell Titer Glo); format: cell-based; settings: Homo sapiens, 144 h; PDX model CTG-2455, 6 days; read-out: HC-7366 EC50
# Description: (§1) . Cell viability was assayed after treating PDX models with DMSO or HC-7366 for 6 days using a plate-based luminescence assay (Cell Titer Glo). […]
# (§2) EC50 values were calculated to the bottom of the curve and are provided below. Viability curves are provided for the models CTG-2229 (FIG. 81), CTG-3680 (FIG. 82), CTG-3667 (FIG. 83), CTG-2456 (FIG. 84), CTG-2457 (FIG. 85), and CTG-2454 (FIG. 86).
# CTG-2457 = test: Ex vivo AML PDX cell viability (Cell Titer Glo); format: cell-based; settings: Homo sapiens, 144 h; PDX model CTG-2457, 6 days; read-out: HC-7366 EC50
# Description: as §1, §2
# CTG-2234 = test: Ex vivo AML PDX cell viability (Cell Titer Glo); format: cell-based; settings: Homo sapiens, 144 h; PDX model CTG-2234, 6 days; read-out: HC-7366 EC50
# Description: as §1, §2
# CTG-2233 = test: Ex vivo AML PDX cell viability (Cell Titer Glo); format: cell-based; settings: Homo sapiens, 144 h; PDX model CTG-2233, 6 days; read-out: HC-7366 EC50
# Description: as §1, §2
# CTG-3680 = test: Ex vivo AML PDX cell viability (Cell Titer Glo); format: cell-based; settings: Homo sapiens, 144 h; PDX model CTG-3680, 6 days; read-out: HC-7366 EC50
# Description: as §1, §2
# CTG-2232 = test: Ex vivo AML PDX cell viability (Cell Titer Glo); format: cell-based; settings: Homo sapiens, 144 h; PDX model CTG-2232, 6 days; read-out: HC-7366 EC50
# Description: as §1, §2
# CTG-2238 = test: Ex vivo AML PDX cell viability (Cell Titer Glo); format: cell-based; settings: Homo sapiens, 144 h; PDX model CTG-2238, 6 days; read-out: HC-7366 EC50
# Description: as §1, §2
# CTG-3439 = test: Ex vivo AML PDX cell viability (Cell Titer Glo); format: cell-based; settings: Homo sapiens, 144 h; PDX model CTG-3439, 6 days; read-out: HC-7366 EC50
# Description: as §1, §2
# CTG-3674 = test: Ex vivo AML PDX cell viability (Cell Titer Glo); format: cell-based; settings: Homo sapiens, 144 h; PDX model CTG-3674, 6 days; read-out: HC-7366 EC50
# Description: as §1, §2
# CTG-3441 = test: Ex vivo AML PDX cell viability (Cell Titer Glo); format: cell-based; settings: Homo sapiens, 144 h; PDX model CTG-3441, 6 days; read-out: HC-7366 EC50
# Description: as §1, §2
# CTG-2700 = test: Ex vivo AML PDX cell viability (Cell Titer Glo); format: cell-based; settings: Homo sapiens, 144 h; PDX model CTG-2700, 6 days; read-out: HC-7366 EC50
# Description: as §1, §2
# CTG-2235 = test: Ex vivo AML PDX cell viability (Cell Titer Glo); format: cell-based; settings: Homo sapiens, 144 h; PDX model CTG-2235, 6 days; read-out: HC-7366 EC50
# Description: as §1, §2
# CTG-2774 = test: Ex vivo AML PDX cell viability (Cell Titer Glo); format: cell-based; settings: Homo sapiens, 144 h; PDX model CTG-2774, 6 days; read-out: HC-7366 EC50
# Description: as §1, §2
# CTG-2456 = test: Ex vivo AML PDX cell viability (Cell Titer Glo); format: cell-based; settings: Homo sapiens, 144 h; PDX model CTG-2456, 6 days; read-out: HC-7366 EC50
# Description: as §1, §2
# CTG-2236 = test: Ex vivo AML PDX cell viability (Cell Titer Glo); format: cell-based; settings: Homo sapiens, 144 h; PDX model CTG-2236, 6 days; read-out: HC-7366 EC50
# Description: as §1, §2
# CTG-3438 = test: Ex vivo AML PDX cell viability (Cell Titer Glo); format: cell-based; settings: Homo sapiens, 144 h; PDX model CTG-3438, 6 days; read-out: HC-7366 EC50
# Description: as §1, §2
# CTG-2239 = test: Ex vivo AML PDX cell viability (Cell Titer Glo); format: cell-based; settings: Homo sapiens, 144 h; PDX model CTG-2239, 6 days; read-out: HC-7366 EC50
# Description: as §1, §2
# CTG-3673 = test: Ex vivo AML PDX cell viability (Cell Titer Glo); format: cell-based; settings: Homo sapiens, 144 h; PDX model CTG-3673, 6 days; read-out: HC-7366 EC50
# Description: as §1, §2
# CTG-2229 = test: Ex vivo AML PDX cell viability (Cell Titer Glo); format: cell-based; settings: Homo sapiens, 144 h; PDX model CTG-2229, 6 days; read-out: HC-7366 EC50
# Description: as §1, §2
# [2] = system: ATF4, ASNS, PSAT1 in MOLM-16 cells; test: Jess protein analysis, MOLM-16 cells; format: cell-based, human; settings: sgControl vs sgGCN2, 24 hr
# Description: Cell lysates were obtained from MOLM-16 sgControl or sgGCN2 cells treated with HC-7366 (0, 0.01, 0.1 and 10 μM) for 24 hr. Ice cold 1x radioimmunoprecipitation assay (RIPA) lysis buffer supplemented with protease and phosphatase inhibitors was added to the cell pellets, on ice. After 30 min on ice, the cell lysates were centrifuged at 4° C., 12,000 rpm for 15 minutes and the supernatant collected. Protein concentration was determined using BCA kit. The cell lysates were mixed with 5× sodium dodecyl sulfate (SDS) loading buffer and denatured at 95° C. for 5 minutes. 1 μg lysate was run on Jess capillary and results were analyzed by compass simple western software.
smiles,measurement,setting,value
"CNC(=O)c1ncn2cc(-c3c(F)ccc(NS(=O)(=O)c4cc(Cl)cnc4OC)c3F)ncc12 [HC-7366, 6-(3-((5-chloro-2-methoxypyridine)-3-sulfonamido)-2,6-difluorophenyl)-N-methylimidazo[1,5-a]pyrazine-1-carboxamide]",TGI,[1]; 3 mg/kg twice daily oral,73%
same,TGI,[1]; 30 mg/kg twice daily oral,77%
same,EC50,CTG-2455,35.7 µM
same,EC50,CTG-2457,248 µM
same,EC50,CTG-2234,65.5 µM
same,EC50,CTG-2233,102 µM
same,EC50,CTG-3680,231 µM
same,EC50,CTG-2232,84.3 µM
same,EC50,CTG-2238,123 µM
same,EC50,CTG-3439,349 µM
same,EC50,CTG-3674,129 µM
same,EC50,CTG-3441,102 µM
same,EC50,CTG-2700,333 µM
same,EC50,CTG-2235,103 µM
same,EC50,CTG-2774,96.9 µM
same,EC50,CTG-2456,31.8 µM
same,EC50,CTG-2236,36.5 µM
same,EC50,CTG-3438,196 µM
same,EC50,CTG-2239,1170 µM
same,EC50,CTG-3673,65.6 µM
same,EC50,CTG-2229,34 µM
same,"levels of ATF4, ASNS and PSAT1",[2],GCN2-dependent increase
